Measured values published in ChEMBL document CHEMBL5260850, “The exploration of aza-quinolines as hematopoietic prostaglandin D synthase (H-PGDS) inhibitors with low brain exposure” (Bioorg Med Chem, 2020).
Converted amounts (≈) assume the structure as drawn. The source made the active and inactive calls. The calls are words filed in the database; no cut-off is given here.

Legend:
[1] = Half life in mouse liver microsomes pretreated for 5 mins followed by incubation with NADP for 30 secs and measured upto 45 mins by LC-MS/MS analysis; type: ADME, Microsome; conditions: time 3030 sec
[2] = Dose normalized AUC in mouse at 3 mg/kg, po; type: ADME, organism-based; design: unit not given here; conditions: in vivo
[3] = Solubility of the compound in FaSSIF at pH 6.5 measured after 4 hrs by HPLC-UV analysis; type: ADME
[4] = Apparent permeability, Papp of the compound at pH 7.4 incubated for 3 hrs by AMP based liquid chromatography; type: ADME; conditions: not told
[5] = Terminal half life in dog at 0.5 mg/kg, iv; type: ADME, organism-based, Canis lupus familiaris; conditions: in vivo, read-out: beta t1/2 (converted)
[6] = Volume of distribution at steady state in dog at 0.5 mg/kg, iv; type: ADME, organism-based, Canis lupus familiaris; conditions: in vivo, read-out: Vdss
[7] = molecular target: Amine oxidase [flavin-containing] A (Homo sapiens, UniProt P21397); assay: Inhibition of MAO-A (unknown origin) upto 10000 nM; conditions: 10 µM
[8] = molecular target: Nuclear receptor subfamily 1 group I member 2 (Homo sapiens, UniProt O75469); assay: Inhibition of PXR (unknown origin) upto 10000 nM; conditions: 10 µM
Nuclear receptor subfamily 1 group I member 2, sequence (O75469 whole entry): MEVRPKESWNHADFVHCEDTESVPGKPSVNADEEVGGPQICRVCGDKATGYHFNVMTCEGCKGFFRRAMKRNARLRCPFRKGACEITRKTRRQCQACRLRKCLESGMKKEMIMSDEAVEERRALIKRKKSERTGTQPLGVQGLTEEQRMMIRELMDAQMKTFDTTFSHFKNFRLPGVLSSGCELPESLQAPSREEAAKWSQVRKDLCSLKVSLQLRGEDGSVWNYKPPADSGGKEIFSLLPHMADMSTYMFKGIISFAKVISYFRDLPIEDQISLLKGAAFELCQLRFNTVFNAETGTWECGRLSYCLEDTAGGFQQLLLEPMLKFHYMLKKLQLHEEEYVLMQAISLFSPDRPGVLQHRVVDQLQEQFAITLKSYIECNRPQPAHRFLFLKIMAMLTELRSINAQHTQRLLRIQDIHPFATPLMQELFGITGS

Cytochrome P450 3A4 = Cytochrome P450 3A4 (Homo sapiens, UniProt P08684); assay: Inhibition of CYP3A4 (unknown origin); type: ADME
Cytochrome P450 3A4, sequence (P08684 whole entry): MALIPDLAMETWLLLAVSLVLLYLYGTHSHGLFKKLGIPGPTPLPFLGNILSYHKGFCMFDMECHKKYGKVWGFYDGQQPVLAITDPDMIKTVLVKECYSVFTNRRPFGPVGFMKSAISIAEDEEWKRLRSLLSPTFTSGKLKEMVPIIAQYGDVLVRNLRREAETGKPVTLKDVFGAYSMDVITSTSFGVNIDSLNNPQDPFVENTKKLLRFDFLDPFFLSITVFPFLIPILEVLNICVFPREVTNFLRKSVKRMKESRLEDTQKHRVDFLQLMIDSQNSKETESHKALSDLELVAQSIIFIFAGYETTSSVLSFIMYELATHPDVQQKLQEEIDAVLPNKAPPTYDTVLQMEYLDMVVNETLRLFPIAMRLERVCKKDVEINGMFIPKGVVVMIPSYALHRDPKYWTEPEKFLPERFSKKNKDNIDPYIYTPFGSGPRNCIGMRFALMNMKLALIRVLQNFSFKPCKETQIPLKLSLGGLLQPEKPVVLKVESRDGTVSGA

[9] = Selectivity ratio of EC50 for inhibition of H-PGDS in rat RBL cells assessed as reduction in A23187-induced PGD2 production to EC50 for anti-inflammatory activity against po dosed C57BL/6J mouse assessed as reduction in compound 48/80-induced PGD2 release into peritoneal lavage fluid
Mus musculus [10] = assay: Anti-inflammatory activity against C57BL/6N mouse assessed as inhibition of muscle function loss by measuring functional recovery of injured limb muscles administered orally for 10 mins prior to unilateral eccentric contraction and QD for 16 days thereafter; conditions: 384 h, route po, time 16 day
[11] = AUC (0 to last) in mdx mouse administered orally 10 mins prior to unilateral eccentric contraction and QD for 43 days thereafter; type: ADME; design: time 43 day, route po; conditions: in vivo, po
[12] = Cmax in mdx mouse administered orally 10 mins prior to unilateral eccentric contraction and QD for 43 days thereafter; type: ADME; design: time 43 day, route po; conditions: in vivo, po
[13] = Toxicity in LPS-treated C57BL6/N mouse assessed as seizures administered orally with compound and 1 hr later treated with LPS and measured after 30 mins; conditions: in vivo, po, 1.5 h
[14] = Toxicity in rat assessed as tolerance at 300 mg/kg, po administered as single dose; type: organism-based; conditions: in vivo
[15] = Toxicity in Wistar Han rat assessed as morphological changes in heart at 30 mg/kg/day, po administered QD for 7 days by microscopic analysis; type: organism-based; conditions: in vivo, 168 h, time 7 day
[16] = Toxicity in Wistar Han rat assessed as morphological changes in kidney at 30 mg/kg/day, po administered QD for 7 days by microscopic analysis; type: organism-based; conditions: in vivo, 168 h, time 7 day
[17] = Toxicity in Wistar Han rat assessed as morphological changes in thymus at 30 mg/kg/day, po administered QD for 7 days by microscopic analysis; type: organism-based; conditions: in vivo, 168 h, time 7 day
[18] = Toxicity in Wistar Han rat assessed as necrosis and inflammatory cell infiltrates in heart at 100 mg/kg/day, po administered QD for 7 days by microscopic analysis; type: organism-based; conditions: in vivo, 168 h, time 7 day
[19] = Toxicity in Wistar Han rat assessed as increased lymphocytolysis in thymus at 100 mg/kg/day, po administered QD for 7 days by microscopic analysis; type: organism-based; conditions: in vivo, 168 h, time 7 day
[20] = AUC in Wistar Han rat at 30 mg/kg/day, po QD for 7 days; type: ADME, organism-based; design: dose 30 mg/kg/day, time 7 day, route po; conditions: in vivo
[21] = AUC in Wistar Han rat at 100 mg/kg/day, po QD for 7 days; type: ADME, organism-based; design: time 7 day, dose 100 mg/kg/day, route po; conditions: in vivo
[22] = Cmax in Wistar Han rat at 10 mg/kg/day, po QD for 7 days; type: ADME, organism-based; design: time 7 day, dose 10 mg/kg/day, route po; conditions: in vivo
[23] = Toxicity in Wistar Han rat assessed as seizure-like activity at 10 to 100 mg/kg/day, po QD for 7 days; type: organism-based; conditions: in vivo, 168 h, dose 10-100 mg/kg/day, time 7 day
[24] = Toxicity in dog assessed as degeneration of zona glomerulosa in adrenal gland at 75 mg/kg/day, po QD for 4 days by microscopic analysis; type: organism-based, Canis lupus familiaris; conditions: in vivo, 96 h, time 4 day
[25] = Toxicity in dog assessed as clinical pathological changes by measuring increase in cardiac troponin 1 level at 75 mg/kg/day, po QD for 4 days; type: organism-based, Canis lupus familiaris; conditions: in vivo, 96 h, time 4 day
[26] = AUC in dog at 10 mg/kg/day, po QD for 4 days; type: ADME, organism-based, Canis lupus familiaris; design: dose 10 mg/kg/day, time 4 day, route po; conditions: in vivo
[27] = AUC in dog at 75 mg/kg/day, po QD for 4 days; type: ADME, organism-based, Canis lupus familiaris; design: time 4 day, dose 75 mg/kg/day, route po; conditions: in vivo
[28] = Cmax in dog at 30 mg/kg/day, po QD for 4 days; type: ADME, organism-based, Canis lupus familiaris; design: time 4 day, dose 30 mg/kg/day, route po; conditions: in vivo
[29] = Cmax in dog at 75 mg/kg/day, po QD for 4 days; type: ADME, organism-based, Canis lupus familiaris; design: dose 75 mg/kg/day, time 4 day, route po; conditions: in vivo
[30] = molecular target: 5-hydroxytryptamine receptor 1B (Homo sapiens) (UniProt P28222); conditions: dose <= 10000.0 nM
5-hydroxytryptamine receptor 1B (Homo sapiens), sequence (P28222 whole entry): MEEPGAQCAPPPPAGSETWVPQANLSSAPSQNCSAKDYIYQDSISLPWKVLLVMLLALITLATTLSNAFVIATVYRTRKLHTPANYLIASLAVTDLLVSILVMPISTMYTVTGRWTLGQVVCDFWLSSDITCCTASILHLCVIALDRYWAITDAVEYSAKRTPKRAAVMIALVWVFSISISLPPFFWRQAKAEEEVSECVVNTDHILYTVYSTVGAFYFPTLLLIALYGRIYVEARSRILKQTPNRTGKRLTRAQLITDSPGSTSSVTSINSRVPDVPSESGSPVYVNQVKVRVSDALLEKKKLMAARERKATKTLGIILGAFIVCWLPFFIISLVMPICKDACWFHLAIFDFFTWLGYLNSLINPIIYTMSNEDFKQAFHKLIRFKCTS
Description: Inhibition of 5-HT1B receptor (unknown origin) upto 10000 nM

[31] = molecular target: 5-hydroxytryptamine receptor 2A (Homo sapiens) (UniProt P28223); conditions: dose <= 10000.0 nM
5-hydroxytryptamine receptor 2A (Homo sapiens), sequence (P28223 whole entry): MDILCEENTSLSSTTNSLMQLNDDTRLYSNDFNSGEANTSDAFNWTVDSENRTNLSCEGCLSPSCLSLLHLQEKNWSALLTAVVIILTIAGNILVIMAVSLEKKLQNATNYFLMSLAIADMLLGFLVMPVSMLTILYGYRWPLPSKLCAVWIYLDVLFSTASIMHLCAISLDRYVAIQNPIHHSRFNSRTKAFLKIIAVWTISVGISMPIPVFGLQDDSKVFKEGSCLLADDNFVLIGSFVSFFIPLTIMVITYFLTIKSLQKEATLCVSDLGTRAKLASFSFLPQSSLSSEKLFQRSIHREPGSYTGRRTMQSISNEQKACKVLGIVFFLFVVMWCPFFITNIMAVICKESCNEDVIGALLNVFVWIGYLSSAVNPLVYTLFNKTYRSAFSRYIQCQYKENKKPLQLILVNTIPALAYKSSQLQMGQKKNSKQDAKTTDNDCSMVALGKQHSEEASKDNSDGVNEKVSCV
Description: Inhibition of 5-HT2A receptor (unknown origin) upto 10000 nM

[32] = molecular target: 5-hydroxytryptamine receptor 2B (Homo sapiens) (UniProt P41595); conditions: dose <= 10000.0 nM
5-hydroxytryptamine receptor 2B (Homo sapiens), sequence (P41595 whole entry): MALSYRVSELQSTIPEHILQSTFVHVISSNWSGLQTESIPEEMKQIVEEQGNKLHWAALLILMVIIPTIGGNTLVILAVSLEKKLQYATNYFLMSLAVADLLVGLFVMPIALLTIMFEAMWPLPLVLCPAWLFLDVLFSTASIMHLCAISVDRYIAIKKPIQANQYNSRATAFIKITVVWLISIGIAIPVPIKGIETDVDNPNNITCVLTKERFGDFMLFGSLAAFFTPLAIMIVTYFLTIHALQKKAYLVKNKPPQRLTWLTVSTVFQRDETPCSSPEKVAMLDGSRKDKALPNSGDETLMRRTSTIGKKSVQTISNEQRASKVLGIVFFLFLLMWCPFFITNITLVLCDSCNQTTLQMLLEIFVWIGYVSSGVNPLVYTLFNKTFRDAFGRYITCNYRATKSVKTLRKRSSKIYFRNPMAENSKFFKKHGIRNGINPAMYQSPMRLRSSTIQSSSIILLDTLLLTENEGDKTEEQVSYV
Description: Inhibition of 5-HT2B receptor (unknown origin) upto 10000 nM

[33] = molecular target: 5-hydroxytryptamine receptor 2C (Homo sapiens) (UniProt P28335); conditions: dose <= 10000.0 nM
5-hydroxytryptamine receptor 2C (Homo sapiens), sequence (P28335 whole entry): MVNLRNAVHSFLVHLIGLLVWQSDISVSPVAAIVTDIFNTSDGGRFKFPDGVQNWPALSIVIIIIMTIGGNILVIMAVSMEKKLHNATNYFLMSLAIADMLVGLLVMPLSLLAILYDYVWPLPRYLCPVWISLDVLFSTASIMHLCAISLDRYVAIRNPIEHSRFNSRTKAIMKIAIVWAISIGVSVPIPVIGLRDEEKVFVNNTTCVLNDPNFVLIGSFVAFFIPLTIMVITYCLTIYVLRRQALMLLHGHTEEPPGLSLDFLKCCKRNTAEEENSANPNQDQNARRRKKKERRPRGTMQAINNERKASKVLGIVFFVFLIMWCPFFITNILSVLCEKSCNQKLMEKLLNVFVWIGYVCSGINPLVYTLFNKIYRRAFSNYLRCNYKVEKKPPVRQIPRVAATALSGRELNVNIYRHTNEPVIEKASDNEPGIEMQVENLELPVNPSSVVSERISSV
Description: Inhibition of 5-HT2C receptor (unknown origin) upto 10000 nM

[34] = molecular target: Kappa-type opioid receptor (Homo sapiens) (UniProt P41145); conditions: dose <= 10000.0 nM
Kappa-type opioid receptor (Homo sapiens), sequence (P41145 whole entry): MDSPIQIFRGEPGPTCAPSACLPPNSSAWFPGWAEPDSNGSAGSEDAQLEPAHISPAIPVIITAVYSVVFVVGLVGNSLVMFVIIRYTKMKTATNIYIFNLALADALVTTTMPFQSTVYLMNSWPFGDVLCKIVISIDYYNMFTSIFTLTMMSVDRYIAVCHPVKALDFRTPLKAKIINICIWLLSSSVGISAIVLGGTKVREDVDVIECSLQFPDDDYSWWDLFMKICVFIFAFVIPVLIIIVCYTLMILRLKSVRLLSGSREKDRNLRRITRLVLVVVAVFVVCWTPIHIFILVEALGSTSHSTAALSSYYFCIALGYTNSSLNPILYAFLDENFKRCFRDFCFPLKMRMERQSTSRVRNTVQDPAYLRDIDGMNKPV
Description: Inhibition of kappa opioid receptor (unknown origin) upto 10000 nM

[35] = molecular target: Adenosine receptor A2a (Homo sapiens) (UniProt P29274); conditions: dose <= 10000.0 nM
Description: Inhibition of adenosine A2A receptor (unknown origin) upto 10000 nM

[36] = molecular target: D(1A) dopamine receptor (Homo sapiens) (UniProt P21728); conditions: dose <= 10000.0 nM
Description: Inhibition of dopamine D1 receptor (unknown origin) upto 10000 nM

[37] = molecular target: Histamine H1 receptor (Homo sapiens) (UniProt P35367); conditions: dose <= 10000.0 nM
Histamine H1 receptor (Homo sapiens), sequence (P35367 whole entry): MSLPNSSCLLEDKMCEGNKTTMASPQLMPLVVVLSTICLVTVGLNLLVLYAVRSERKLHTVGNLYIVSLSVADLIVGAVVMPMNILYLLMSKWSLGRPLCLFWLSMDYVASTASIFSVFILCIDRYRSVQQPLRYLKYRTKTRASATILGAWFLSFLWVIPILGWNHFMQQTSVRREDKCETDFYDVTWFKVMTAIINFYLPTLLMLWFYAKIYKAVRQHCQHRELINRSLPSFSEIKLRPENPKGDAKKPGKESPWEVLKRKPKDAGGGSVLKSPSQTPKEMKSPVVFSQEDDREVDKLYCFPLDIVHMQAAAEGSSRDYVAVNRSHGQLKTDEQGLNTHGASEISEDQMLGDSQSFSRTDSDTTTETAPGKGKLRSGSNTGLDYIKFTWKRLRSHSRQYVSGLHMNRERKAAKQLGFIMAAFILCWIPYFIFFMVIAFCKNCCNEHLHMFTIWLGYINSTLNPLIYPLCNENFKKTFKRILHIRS
Description: Inhibition of histamine H1 receptor (unknown origin) upto 10000 nM

[38] = molecular target: Vasopressin V1a receptor (Homo sapiens) (UniProt P37288); conditions: dose <= 10000.0 nM
Description: Inhibition of V1A receptor (unknown origin) upto 10000 nM

[39] = molecular target: Potassium voltage-gated channel subfamily A member 5 (Homo sapiens) (UniProt P22460); conditions: dose <= 10000.0 nM
Description: Inhibition of Kv1.5 channel (unknown origin) upto 10000 nM

[40] = molecular target: Prostaglandin G/H synthase 2 (Homo sapiens) (UniProt P35354); conditions: dose <= 10000.0 nM
Description: Inhibition of COX-2 (unknown origin) upto 10000 nM

[41] = molecular target: Tyrosine-protein kinase Lck (Homo sapiens) (UniProt P06239); conditions: dose <= 10000.0 nM
Tyrosine-protein kinase Lck (Homo sapiens), sequence (P06239 2-509 limits assumed): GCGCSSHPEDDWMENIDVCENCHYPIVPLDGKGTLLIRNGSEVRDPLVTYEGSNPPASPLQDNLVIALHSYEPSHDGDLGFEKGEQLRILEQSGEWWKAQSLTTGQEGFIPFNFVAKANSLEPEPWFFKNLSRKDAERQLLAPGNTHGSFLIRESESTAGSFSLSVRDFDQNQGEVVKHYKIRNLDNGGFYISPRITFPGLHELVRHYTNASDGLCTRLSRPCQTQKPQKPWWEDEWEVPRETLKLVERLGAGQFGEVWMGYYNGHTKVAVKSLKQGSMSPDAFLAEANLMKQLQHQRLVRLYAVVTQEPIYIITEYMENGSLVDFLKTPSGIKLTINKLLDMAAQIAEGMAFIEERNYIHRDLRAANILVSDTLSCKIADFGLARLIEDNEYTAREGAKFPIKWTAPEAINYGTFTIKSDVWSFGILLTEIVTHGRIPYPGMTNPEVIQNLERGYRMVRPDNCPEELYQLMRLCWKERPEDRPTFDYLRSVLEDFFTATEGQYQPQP
Description: Inhibition of LCK (unknown origin) upto 10000 nM

[42] = molecular target: Sodium-dependent serotonin transporter (Homo sapiens) (UniProt P31645); conditions: dose <= 10000.0 nM
Sodium-dependent serotonin transporter (Homo sapiens), sequence (P31645 whole entry, looked up): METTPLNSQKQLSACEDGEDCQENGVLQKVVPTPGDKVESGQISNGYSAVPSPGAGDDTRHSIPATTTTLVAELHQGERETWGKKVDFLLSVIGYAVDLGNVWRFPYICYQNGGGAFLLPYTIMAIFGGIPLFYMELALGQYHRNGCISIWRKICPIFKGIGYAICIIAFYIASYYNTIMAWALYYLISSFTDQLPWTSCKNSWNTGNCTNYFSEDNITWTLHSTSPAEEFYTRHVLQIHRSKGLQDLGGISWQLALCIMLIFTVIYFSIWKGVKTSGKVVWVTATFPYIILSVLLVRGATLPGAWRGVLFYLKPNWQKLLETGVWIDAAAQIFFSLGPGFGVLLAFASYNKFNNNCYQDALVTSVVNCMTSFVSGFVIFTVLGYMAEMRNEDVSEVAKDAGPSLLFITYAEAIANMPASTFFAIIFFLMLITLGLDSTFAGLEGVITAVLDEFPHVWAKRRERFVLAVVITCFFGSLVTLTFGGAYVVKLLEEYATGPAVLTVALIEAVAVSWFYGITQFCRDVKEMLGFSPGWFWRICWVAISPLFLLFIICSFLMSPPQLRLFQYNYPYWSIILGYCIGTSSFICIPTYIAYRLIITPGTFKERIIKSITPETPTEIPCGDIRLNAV
Description: Inhibition of SERT (unknown origin) upto 10000 nM

Mus musculus [43] = species: Mus musculus; assay: animal or person; conditions: C57BL/6J, Mast cell, po, 1.117 h

Q: For `CC(C)(O)[C@H]1CC[C@H](NC(=O)c2cnc3nc(C4CC4)ccc3c2)CC1`, which half-life [1] is on record?
A: > 3 h

Q: And the AUC/dose [2]?
A: 1320

Q: And the solubility at 4 h [3]?
A: 140 µg/mL (≈ 396 µM)

Q: And the Papp at 3 h [4]?
A: 4.4 ×10⁻⁶ cm/s

Q: And the half-life [5]?
A: 6.2 h

Q: What about the Vd [6] of the same compound?
A: 1 L/kg

Q: And the “inhibition (INH)” value [7]?
A: Not Active

Q: What about the “inhibition (INH)” value [8] of the same compound?
A: Not Active

Q: What about the IC50 (Cytochrome P450 3A4) of the same compound?
A: > 100 µM

Q: What about the “Ratio EC50” value [9] of the same compound?
A: 10

Q: What about the ED50 (Mus musculus [10]) of the same compound?
A: 3 mg/kg

Q: And the AUC(0-t) at 1032 h [11]?
A: 1.1 µg·h/mL

Q: What about the Cmax [12] of the same compound?
A: 260 ng/mL

Q: And the Activity [13]?
A: Non-Toxic

Q: And the Activity [14]?
A: Non-Toxic

Q: What about the Activity [15] of the same compound?
A: Non-Toxic

Q: What about the Activity [16] of the same compound?
A: Non-Toxic

Q: What about the Activity [17] of the same compound?
A: Non-Toxic

Q: What about the Activity [18] of the same compound?
A: Toxic

Q: What about the Activity [19] of the same compound?
A: Toxic

Q: And the AUC at 168 h [20]?
A: 410 µg·h/mL

Q: And the AUC at 168 h [21]?
A: 820 µg·h/mL

Q: And the Cmax [22]?
A: 8700 ng/mL

Q: And the Activity [23]?
A: Non-Toxic

Q: And the Activity [24]?
A: Toxic

Q: What about the Activity [25] of the same compound?
A: Toxic

Q: And the AUC at 96 h [26]?
A: 120 µg·h/mL

Q: What about the AUC at 96 h [27] of the same compound?
A: 3600 µg·h/mL

Q: What about the Cmax [28] of the same compound?
A: 34000 ng/mL

Q: And the Cmax [29]?
A: 210000 ng/mL

Q: What about the inhibition [30] of the same compound?
A: inactive

Q: What about the inhibition [31] of the same compound?
A: inactive

Q: And the inhibition [32]?
A: inactive

Q: What about the inhibition [33] of the same compound?
A: inactive

Q: What about the inhibition [34] of the same compound?
A: inactive

Q: What about the inhibition [35] of the same compound?
A: inactive

Q: What about the inhibition [36] of the same compound?
A: inactive

Q: And the inhibition [37]?
A: inactive

Q: What about the inhibition [38] of the same compound?
A: inactive

Q: And the inhibition [39]?
A: inactive

Q: And the inhibition [40]?
A: inactive

Q: And the inhibition [41]?
A: inactive

Q: And the inhibition [42]?
A: inactive

Q: And the ED50 (Mus musculus [43])?
A: 0.009 mg/kg
